Experiment [1] concerns the target PHD2 enzyme (residues 181-417) (Homo sapiens (Human), UniProt Q9GZT9). Kind of experiment: Inhibition of PHD enzyme (LC/MS peptide hydroxylation assay). The class given is biochemical. Conditions: PHD2 (residues 181-417) 5 nM, 60 min pre-incubation; -log(IC50), IC50 molar. The procedure, abridged:
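PHD2 (5 nM final) preincubated with inhibitor 60 min at RT in 50 mM HEPES, 50 mM KCl, 0.5 mM TCEP, 2 uM FeCl2, 0.1 mg/ml BSA, pH 7.3. Reaction started with biotin-peptide (1 uM), 2-oxoglutarate (2 uM), ascorbate (1 mM), quenched at 60 min; hydroxylated product by LC/MS, reported as pIC50.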

Experiment [2] relates to HIF1a protein in H9c2 rat cardiomyocytes. Briefly: Cell-based HIF-alpha stabilization assay (inhibition of PHD in cells). Conditions: Rattus norvegicus, H9c2, 24 h, 24 hrs compound incubation, HIF1a protein by ELISA, read-out: Inhibition of PHD in cells (pEC50) (converted). The procedure, abridged:
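Rat H9c2 cardiomyocytes, cultured 24 h, were treated 24 h with an 11-point serial dilution of compound. HIF1a in whole-cell lysates was quantified by ELISA as % of the maximal desferrioxamine response. EC50 came from curve fitting; EC50pos is the concentration reaching 50% of the desferrioxamine maximum.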
A general note: In an ELISA, binding on a coated surface is turned into a signal by an enzyme label.

Molecules are shown by their SMILES.

PHD2 enzyme (residues 181-417), sequence (Q9GZT9 181-417): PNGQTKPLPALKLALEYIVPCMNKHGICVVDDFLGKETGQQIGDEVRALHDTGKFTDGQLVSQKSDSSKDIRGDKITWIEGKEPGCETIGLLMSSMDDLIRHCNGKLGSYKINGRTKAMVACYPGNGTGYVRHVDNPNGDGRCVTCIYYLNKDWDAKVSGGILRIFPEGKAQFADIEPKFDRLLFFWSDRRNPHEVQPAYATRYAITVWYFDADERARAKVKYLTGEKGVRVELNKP

Consider `COCCC1(NC(=O)c2ccc(-n3ncc(-c4ccc(C#N)cc4OC)c3O)nc2)CC1` [Example 168, 6-(4-(4-cyano-2-methoxyphenyl)-5-hydroxy-1H-pyrazol-1-yl)-N-(1-(2-methoxyethyl)cyclopropyl)nicotinamide], for which the “PHD Inhibition (pIC50)” value in experiment [1] amounted to 8.1. Also, the EC50 in experiment [2] is 437 nM.
Take `CCN(C(=O)c1ccc(-n2ncc(-c3ccc(C#N)cc3C)c2O)nc1)C1CCN(C)CC1` [Example 429, 6-(4-(4-cyano-2-methylphenyl)-5-hydroxy-1H-pyrazol-1-yl)-N-ethyl-N-(1-methylpiperidin-4-yl)nicotinamide]: in experiment [1], the “PHD Inhibition (pIC50)” value was found to be 7.95. For the same molecule, the EC50 in experiment [2] was 589 nM.
As for `COc1cc(-c2cnn(-c3ccc(C(=O)N[C@@H](C)C4CCOCC4)cn3)c2O)ccn1` [Example 16, (S)-6-(5-hydroxy-4-(2-methoxypyridin-4-yl)-1H-pyrazol-1-yl)-N-(1-(tetrahydro-2H-pyran-4-yl)ethyl)nicotinamide], the “PHD Inhibition (pIC50)” value in experiment [1] was 7.38. Also, the EC50 in experiment [2] is 200 nM.
On to `Cc1c(-c2cnn(-c3ccc(C(=O)N4CC5(CN(C)C5)C4)cn3)c2O)ccc(C#N)c1F` [Example 342, 2-fluoro-4-(5-hydroxy-1-(5-(6-methyl-2,6-diazaspiro[3.3]heptane-2-carbonyl)pyridin-2-yl)-1H-pyrazol-4-yl)-3-methylbenzonitrile], for which the “PHD Inhibition (pIC50)” value in experiment [1] is 7.60. The EC50 in experiment [2] was 427 nM.
Turning to `Cc1cc(C#N)ccc1-c1cnn(-c2ccc(C(=O)NC3CC4(COC4)C3)cn2)c1O` [Example 244, 6-(4-(4-cyano-2-methylphenyl)-5-hydroxy-1H-pyrazol-1-yl)-N-(2-oxaspiro[3.3]heptan-6-yl)nicotinamide], the “PHD Inhibition (pIC50)” value in experiment [1] is on record as 8.4. The EC50 in experiment [2] is 240 nM.
With `Cc1cc(C#N)ccc1-c1cnn(-c2ccc(C(=O)NC(CO)C3CCOC3)cn2)c1O` (stereo not drawn) [Example 71, 6-(4-(4-cyano-2-methylphenyl)-5-hydroxy-1H-pyrazol-1-yl)-N-(2-hydroxy-1-(tetrahydrofuran-3-yl)ethyl)nicotinamide], in experiment [1], the “PHD Inhibition (pIC50)” value stood at 7.24. In addition, the EC50 in experiment [2] was 269 nM.
Regarding `COc1cc(-c2cnn(-c3ccc(C(=O)NCC4CCN(C)CC4)cn3)c2O)ccn1` [Example 30, 6-(5-hydroxy-4-(2-methoxypyridin-4-yl)-1H-pyrazol-1-yl)-N-((1-methylpiperidin-4-yl)methyl)nicotinamide], the “PHD Inhibition (pIC50)” value in experiment [1] turned out to be 7.5. Further, the EC50 in experiment [2] is 2000 nM.
`CCCNC(=O)c1ccc(-n2ncc(-c3ccnc(OC)c3)c2O)nc1` [Example 8, 6-(5-hydroxy-4-(2-methoxypyridin-4-yl)-1H-pyrazol-1-yl)-N-propylnicotinamide]: in experiment [1], the “PHD Inhibition (pIC50)” value is listed as 7.03. The EC50 in experiment [2] is 603 nM.
For `N#Cc1ccc(-c2cnn(-c3ccc(C(=O)NC4CC5(COC5)C4)cn3)c2O)cc1` [Example 237, 6-(4-(4-cyanophenyl)-5-hydroxy-1H-pyrazol-1-yl)-N-(2-oxaspiro[3.3]heptan-6-yl)nicotinamide], the “PHD Inhibition (pIC50)” value in experiment [1] is listed as 7.54. In experiment [2], the EC50 is 447 nM.
Consider `Cc1cc(C#N)ccc1-c1cnn(-c2ccc(C(=O)N3CCN(C4CCC4)CC3)cn2)c1O` [Example 373, 4-(1-(5-(4-cyclobutylpiperazine-1-carbonyl)pyridin-2-yl)-5-hydroxy-1H-pyrazol-4-yl)-3-methylbenzonitrile], for which the “PHD Inhibition (pIC50)” value in experiment [1] worked out at 8.00. In addition, the EC50 in experiment [2] was 1200 nM.
For `CCN(C)[C@@H]1CCCN(C(=O)c2ccc(-n3ncc(-c4ccc(C#N)cc4C)c3O)nc2)C1` [Example 382, (R)-4-(1-(5-(3-(ethyl(methyl)amino)piperidine-1-carbonyl)pyridin-2-yl)-5-hydroxy-1H-pyrazol-4-yl)-3-methylbenzonitrile], the “PHD Inhibition (pIC50)” value in experiment [1] worked out at 8.00. The EC50 in experiment [2] is 977 nM.
Take `Cc1cc(C#N)c(F)cc1-c1cnn(-c2ccc(C(=O)N3CC(N(C)C)C3)cn2)c1O` [Example 394, 4-(1-(5-(3-(dimethylamino)azetidine-1-carbonyl)pyridin-2-yl)-5-hydroxy-1H-pyrazol-4-yl)-2-fluoro-5-methylbenzonitrile]: the “PHD Inhibition (pIC50)” value in experiment [1] came out at 7.88. In addition, the EC50 in experiment [2] is 2820 nM.
Take `Cc1cc(C#N)ccc1-c1cnn(-c2ccc(C(=O)N3CCC[C@H]3CN3CCCC3)cn2)c1O` [Example 348, (S)-4-(5-hydroxy-1-(5-(2-(pyrrolidin-1-ylmethyl)pyrrolidine-1-carbonyl)pyridin-2-yl)-1H-pyrazol-4-yl)-3-methylbenzonitrile]: the “PHD Inhibition (pIC50)” value in experiment [1] worked out at 7.72. The EC50 in experiment [2] was 741 nM.
Take `COCCCN(C)C(=O)c1ccc(-n2ncc(-c3ccc(C#N)cc3)c2O)nc1` [Example 234, 6-(4-(4-cyanophenyl)-5-hydroxy-1H-pyrazol-1-yl)-N-(3-methoxypropyl)-N-methylnicotinamide]: in experiment [1], the “PHD Inhibition (pIC50)” value was found to be 7.12. Moreover, the EC50 in experiment [2] was 2240 nM.
Regarding `Cc1cc(C#N)c(F)cc1-c1cnn(-c2ccc(C(=O)N3CC4(CN(C)C4)C3)cn2)c1O` [Example 343, 2-fluoro-4-(5-hydroxy-1-(5-(6-methyl-2,6-diazaspiro[3.3]heptane-2-carbonyl)pyridin-2-yl)-1H-pyrazol-4-yl)-5-methylbenzonitrile], in experiment [1], the “PHD Inhibition (pIC50)” value amounted to 8.07. Besides, the EC50 in experiment [2] is 1150 nM.
On the same counts, the results for `CC(C)OCCCNC(=O)c1ccc(-n2ncc(-c3ccc(C#N)cc3)c2O)nc1` [Example 163, 6-(4-(4-cyanophenyl)-5-hydroxy-1H-pyrazol-1-yl)-N-(3-isopropoxypropyl)nicotinamide] are 7.28 and 1480 nM.
With `COCCCNC(=O)c1ccc(-n2ncc(-c3cc(OC)c(C#N)cc3C)c2O)nc1` [Example 426, 6-(4-(4-cyano-5-methoxy-2-methylphenyl)-5-hydroxy-1H-pyrazol-1-yl)-N-(3-methoxypropyl)nicotinamide], the “PHD Inhibition (pIC50)” value in experiment [1] is 8.18. Besides, the EC50 in experiment [2] is 2140 nM.
As for `COc1cc(-c2cnn(-c3ccc(C(=O)NCC(C)C)cn3)c2O)ccn1` [Example 6, 6-(5-hydroxy-4-(2-methoxypyridin-4-yl)-1H-pyrazol-1-yl)-N-isobutylnicotinamide], the “PHD Inhibition (pIC50)” value in experiment [1] came to 7.02. Besides, the EC50 in experiment [2] is 955 nM.
With `CC1CC1NC(=O)c1ccc(-n2ncc(-c3ccc(C#N)cc3)c2O)nc1` (stereo not drawn) [Example 262, 6-(4-(4-cyanophenyl)-5-hydroxy-1H-pyrazol-1-yl)-N-(2-methylcyclopropyl)nicotinamide], in experiment [1], the “PHD Inhibition (pIC50)” value is given as 7.38. Further, the EC50 in experiment [2] was 525 nM.
On the same counts, the results for `Cc1cc(C#N)ccc1-c1cnn(-c2ccc(C(=O)NCC3CCCO3)cn2)c1O` (stereo not drawn) [Example 133, 6-(4-(4-cyano-2-methylphenyl)-5-hydroxy-1H-pyrazol-1-yl)-N-((tetrahydrofuran-2-yl)methyl)nicotinamide] are 7.17 and 195 nM.
For `Cc1cc(-n2ncc(-c3ccc(C#N)cc3)c2O)ncc1C(=O)N[C@H]1CCOC1` [Example 277, (S)-6-(4-(4-cyanophenyl)-5-hydroxy-1H-pyrazol-1-yl)-4-methyl-N-(tetrahydrofuran-3-yl)nicotinamide], in experiment [1], the “PHD Inhibition (pIC50)” value is 6.89. Moreover, the EC50 in experiment [2] was 7080 nM.
